This note sets out measurements from PubChem BioAssay AID248 (DTP/NCI, 2004).

Molecules are shown by their SMILES. Several values for one entry are separate records, joined by “and”; a condition that tells them apart may be missing. Equal entries are not always repeated. Inconclusive results and toxic doses are left out.

The assay deals with L1210 leukemia ip in BDF1 mice, survival T/C. Briefly: NCI In Vivo Anticancer Drug Screen. Data for tumor model L1210 Leukemia (intraperitoneal) in B6D2F1 (BDF1) mice. Conditions: higher = longer survival. In short, it runs like this:
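Ratio derived from survival: compound-dosed mice over vehicle-dosed mice, all bearing a transplantable tumor.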

[1] abbreviates: endpoint: mean survival time, dose: 100.0 mg/kg/injection, schedule: Q04DX002 (ip), vehicle: saline with Tween-80.
Setting [2] is: endpoint: mean survival time, dose: 200.0 mg/kg/injection, schedule: Q04DX002 (ip), vehicle: saline with Tween-80.
The mark [3] stands for this setting: endpoint: mean survival time, dose: 400.0 mg/kg/injection, schedule: Q04DX002 (ip), vehicle: saline with Tween-80.
Where [4] appears, read: endpoint: mean survival time, dose: 100.0 mg/kg/injection, schedule: Q01DX009 (ip), vehicle: saline with Tween-80.
The mark [5] stands for this setting: endpoint: mean survival time, dose: 200.0 mg/kg/injection, schedule: Q01DX009 (ip), vehicle: saline with Tween-80.
[6] abbreviates: endpoint: mean survival time, dose: 100.0 mg/kg/injection, schedule: Q01DX001 (ip), vehicle: saline.
[7] abbreviates: endpoint: mean survival time, dose: 200.0 mg/kg/injection, schedule: Q01DX001 (ip), vehicle: saline.
[8] abbreviates: endpoint: mean survival time, dose: 400.0 mg/kg/injection, schedule: Q01DX001 (ip), vehicle: saline.
The mark [9] stands for this setting: endpoint: mean survival time, dose: 25.0 mg/kg/injection, schedule: Q04DX003 (ip), vehicle: saline with Tween-80.
The mark [10] stands for this setting: endpoint: mean survival time, dose: 50.0 mg/kg/injection, schedule: Q04DX003 (ip), vehicle: saline with Tween-80.
Where [11] appears, read: endpoint: mean survival time, dose: 100.0 mg/kg/injection, schedule: Q04DX003 (ip), vehicle: saline.

Regarding `Cc1cc(Cl)ccc1O/C(=C/C(=O)O)C(=O)O`, the T/C was 107 % of control under setting [1], 107 % of control under setting [2] and 100 % of control under setting [3].
Turning to `CCCCC#CC(=O)OCCCCC`, the T/C is, setting by setting: under setting [4], 105 % of control; under setting [5], 91 % of control.
For the compound `O=C(O)C1C2CC3CC(C2)CC1C3` (stereo not drawn), the T/C reads like this: (endpoint: mean survival time, dose: 100.0 mg/kg/injection, schedule: Q04DX002 (ip), vehicle: Klucel (hydroxypropylcellulose) (HPC)) 105 % of control; (endpoint: mean survival time, dose: 200.0 mg/kg/injection, schedule: Q04DX002 (ip), vehicle: Klucel (hydroxypropylcellulose) (HPC)) 94 % of control and 110 % of control; (endpoint: mean survival time, dose: 400.0 mg/kg/injection, schedule: Q04DX002 (ip), vehicle: Klucel (hydroxypropylcellulose) (HPC)) 113 % of control; (endpoint: mean survival time, dose: 600.0 mg/kg/injection, schedule: Q04DX002 (ip), vehicle: Klucel (hydroxypropylcellulose) (HPC)) 94 % of control.
For the compound `O=C1Nc2ccc3c(c2/C1=C\c1cc2c(cc1Br)OCO2)OCO3`, the T/C (endpoint: mean survival time, dose: 50.0 mg/kg/injection, schedule: Q01DX001 (ip), vehicle: alcohol) was 93 % of control; the T/C (endpoint: mean survival time, dose: 100.0 mg/kg/injection, schedule: Q01DX001 (ip), vehicle: alcohol) was 93 % of control; the T/C (endpoint: mean survival time, dose: 200.0 mg/kg/injection, schedule: Q01DX001 (ip), vehicle: alcohol) is 98 % of control; the T/C (endpoint: mean survival time, dose: 400.0 mg/kg/injection, schedule: Q01DX001 (ip), vehicle: alcohol) was 96 % of control.
In the case of `CC1CN=C(CCc2ccc(NC(=O)c3ccc(C(=O)Nc4ccc(CCC5=NCC(C)N5)cc4)cc3)cc2)N1` (stereo not drawn), the T/C runs as follows: (endpoint: mean survival time, dose: 240.0 mg/kg/injection, schedule: Q01DX Z (ip), vehicle: saline) 97 % of control; (endpoint: mean survival time, dose: 480.0 mg/kg/injection, schedule: Q01DX Z (ip), vehicle: saline) 92 % of control.
Consider `CCOC(=O)C(C)(C)CN(CC(C)(C)C(=O)OCC)C(C)(C)C`, for which the T/C is, setting by setting: (endpoint: mean survival time, dose: 100.0 mg/kg/injection, schedule: Q01DX001 (ip), vehicle: saline sonified) 87 % of control; (endpoint: mean survival time, dose: 200.0 mg/kg/injection, schedule: Q01DX001 (ip), vehicle: saline sonified) 93 % of control; (endpoint: mean survival time, dose: 400.0 mg/kg/injection, schedule: Q01DX001 (ip), vehicle: saline sonified) 91 % of control.
Take `CC(=O)Nc1ncn[nH]1`: the T/C is 98 % of control (endpoint: mean survival time, dose: 50.0 mg/kg/injection, schedule: Q01DX001 (ip), vehicle: saline); 98 % of control under setting [6]; 101 % of control under setting [7]; 101 % of control under setting [8].
As to `CS(=O)(=O)OCCN(CCOS(C)(=O)=O)c1ccc(C=Nc2ccc(-c3csc(Cc4ccccc4)n3)cc2)cc1`, the T/C is 122 % of control (endpoint: mean survival time, dose: 20.0 mg/kg/injection, schedule: Q04DX003 (ip), vehicle: Klucel (hydroxypropylcellulose) (HPC)); 98 % of control (endpoint: mean survival time, dose: 30.0 mg/kg/injection, schedule: Q04DX003 (ip), vehicle: Klucel (hydroxypropylcellulose) (HPC)); 152 % of control (endpoint: mean survival time, dose: 66.0 mg/kg/injection, schedule: Q04DX003 (ip), vehicle: Klucel (hydroxypropylcellulose) (HPC)); 107 % of control (endpoint: mean survival time, dose: 150.0 mg/kg/injection, schedule: Q04DX003 (ip), vehicle: Klucel (hydroxypropylcellulose) (HPC)).
As to `CCOC(=O)C(OCc1ccccc1)(C(=O)O)C(C)C` (stereo not drawn), the T/C runs as follows: under setting [9], 93 % of control; under setting [10], 97 % of control; (endpoint: mean survival time, dose: 100.0 mg/kg/injection, schedule: Q04DX003 (ip), vehicle: saline with Tween-80) 98 % of control; (endpoint: mean survival time, dose: 200.0 mg/kg/injection, schedule: Q04DX003 (ip), vehicle: saline with Tween-80) 103 % of control.
In the case of `CCCCCCCCCCCCNC(=O)C[n+]1cccc(C(N)=O)c1`, the T/C under setting [11] is 96 % of control.
As to `CCN(CCCl)CCCNCc1c2ccccc2c(C)c2ccccc12`, the T/C (endpoint: mean survival time, dose: 5.0 mg/kg/injection, schedule: Q01DX005 (ip), vehicle: saline) is 116 % of control.
With `OC1C(SCc2ccccc2)OCC2OC3(CCCCC3)OC21` (stereo not drawn), the T/C under setting [6] is 100 % of control, the T/C under setting [7] is 102 % of control and the T/C under setting [8] is 104 % of control.
On to `COC(=O)C12C3OC(C4OC43)C1(C(=O)OC)C1OC2C2OC21` (stereo not drawn), for which the T/C is 100 % of control (endpoint: mean survival time, dose: 87.5 mg/kg/injection, schedule: Q01DX009 (ip), vehicle: Klucel (hydroxypropylcellulose) (HPC)); 101 % of control (endpoint: mean survival time, dose: 175.0 mg/kg/injection, schedule: Q01DX009 (ip), vehicle: Klucel (hydroxypropylcellulose) (HPC)); 101 % of control (endpoint: mean survival time, dose: 350.0 mg/kg/injection, schedule: Q01DX009 (ip), vehicle: Klucel (hydroxypropylcellulose) (HPC)).
With `NC(N)=N/N=C/c1cccs1`, the T/C runs as follows: (endpoint: mean survival time, dose: 15.0 mg/kg/injection, schedule: Q01DX Z (oral), vehicle: saline) 90 % of control; (endpoint: mean survival time, dose: 30.0 mg/kg/injection, schedule: Q01DX Z (ip), vehicle: saline) 90 % of control; (endpoint: mean survival time, dose: 30.0 mg/kg/injection, schedule: Q01DX Z (oral), vehicle: saline) 92 % of control; (endpoint: mean survival time, dose: 60.0 mg/kg/injection, schedule: Q01DX Z (oral), vehicle: saline) 92 % of control.
Consider `Cc1nc2c(=O)[nH]n(C)c2nc1C`, for which the T/C under setting [4] is 97 % of control; the T/C under setting [5] was 95 % of control; the T/C (endpoint: mean survival time, dose: 400.0 mg/kg/injection, schedule: Q01DX009 (ip), vehicle: saline with Tween-80) was 95 % of control.
Regarding `O=c1[nH]nc(SCc2ccccc2)c(=S)[nH]1`, the T/C (endpoint: mean survival time, dose: 100.0 mg/kg/injection, schedule: Q01DX001 (ip), vehicle: other) is 119 % of control; the T/C (endpoint: mean survival time, dose: 177.0 mg/kg/injection, schedule: Q01DX001 (ip), vehicle: other) was 104 % of control; the T/C (endpoint: mean survival time, dose: 200.0 mg/kg/injection, schedule: Q01DX001 (ip), vehicle: other) was 156 % of control; the T/C (endpoint: mean survival time, dose: 200.0 mg/kg/injection, schedule: Q01DX005 (ip), vehicle: other) is 92 % of control; the T/C (endpoint: mean survival time, dose: 266.0 mg/kg/injection, schedule: Q01DX001 (ip), vehicle: other) was 101 % of control; the T/C (endpoint: mean survival time, dose: 300.0 mg/kg/injection, schedule: Q01DX005 (ip), vehicle: other) was 95 % of control.
Take `CCSC(C(O)C(O)C(O)CO)n1ccc(=O)[nH]c1=O` (stereo not drawn): the T/C was 97 % of control (endpoint: mean survival time, dose: 100.0 mg/kg/injection, schedule: Q01DX005 (ip), vehicle: saline) and 93 % of control (endpoint: mean survival time, dose: 200.0 mg/kg/injection, schedule: Q01DX005 (ip), vehicle: saline).
On to `COC(=O)CN1C(=O)c2ccccc2C1=O`, for which the T/C runs as follows: under setting [11], 95 % of control; (endpoint: mean survival time, dose: 200.0 mg/kg/injection, schedule: Q04DX003 (ip), vehicle: saline) 101 % of control; (endpoint: mean survival time, dose: 400.0 mg/kg/injection, schedule: Q04DX003 (ip), vehicle: saline) 98 % of control.
Regarding `O=C(ON=C(c1ccc(Cl)cc1)c1ccc(Cl)cc1)c1ccc(Cl)cc1`, the T/C is 157 % of control (endpoint: median survival time, dose: 300.0 mg/kg/injection, schedule: Q01DX009 (ip), vehicle: Klucel (hydroxypropylcellulose) (HPC)); 88 % of control (endpoint: median survival time, dose: 500.0 mg/kg/injection, schedule: Q01DX009 (ip), vehicle: Klucel (hydroxypropylcellulose) (HPC)); 74 % of control (endpoint: median survival time, dose: 833.0 mg/kg/injection, schedule: Q01DX009 (ip), vehicle: Klucel (hydroxypropylcellulose) (HPC)).
With `O=C1C=C(O)c2ccccc2C1=O`, the T/C is 98 % of control (endpoint: mean survival time, dose: 10.0 mg/kg/injection, schedule: Q01DX Z (ip), vehicle: other); 98 % of control (endpoint: mean survival time, dose: 12.5 mg/kg/injection, schedule: Q04DX003 (ip), vehicle: saline with Tween-80); 88 % of control (endpoint: mean survival time, dose: 20.0 mg/kg/injection, schedule: Q01DX Z (ip), vehicle: other); 106 % of control under setting [9]; 90 % of control (endpoint: mean survival time, dose: 30.0 mg/kg/injection, schedule: Q01DX Z (ip), vehicle: other); 97 % of control (endpoint: mean survival time, dose: 31.2 mg/kg/injection, schedule: Q01DX Z (ip), vehicle: other). Further, the T/C (endpoint: mean survival time, dose: 40.0 mg/kg/injection, schedule: Q01DX Z (ip), vehicle: other) is 90 % of control and the T/C under setting [10] was 92 % of control.
On to `O=C(O)c1c(Br)c(Br)c(Br)c(Br)c1C(=O)Nc1cccc2ccccc12`, for which the T/C reads like this: under setting [1], 97 % of control; under setting [2], 97 % of control; under setting [3], 94 % of control.
As to `CNCC(O)c1cc(OC)c(OC)c(OC)c1` (stereo not drawn), the T/C runs as follows: (endpoint: mean survival time, dose: 100.0 mg/kg/injection, schedule: Q04DX002 (ip), vehicle: saline) 102 % of control; (endpoint: mean survival time, dose: 200.0 mg/kg/injection, schedule: Q04DX002 (ip), vehicle: saline) 93 % of control; (endpoint: mean survival time, dose: 400.0 mg/kg/injection, schedule: Q04DX002 (ip), vehicle: saline) 96 % of control.
